Laboratory results reported in patent US12365695B2, “Fused ring heteroaryl compounds as RIPK1 inhibitors” (BiSiChem Co., Ltd., priority 2019, dated 2025).
pIC50: −log10 of the molar value.

tested on: HT-29 cells; experiment: Cell-based necroptosis assay for RIPK1 activity (cell viability, CCK-8); conditions: HT29 (human colon cancer), Z-VAD-FMK 20 μM, human TNFα 10 ng/ml, SM-164 100 nM, 24 h, read-out: Necroptosis inhibition (IC50)
Experimental: Human colon carcinoma cell HT-29 (KCLB 30038), BV2 mouse microglial cell (cell was a kind gift from Dr. Nak-Yun Sung, Senior researcher at Korea Prime Pharmacy CO., LTD.) and human microglial cell HMC3 (ATCC® CRL-3304™). HT-29 cell was grown in Roswell Park Memorial Institute (RPMI) 1640, BV2 cell was grown in Dulbecco's Modified Eagle's Medium (DMEM) and HMC3 cell was grown in Minimum Essential Media Eagle (MEM) supplemented with 10% fetal bovine serum and 1% mixture of penicillin and streptomycin (Gibco). Cells were maintained at 37° C. in a humidified 5% CO2 atmosphere.
To measure the activity of RIPK1 inhibitor in necroptotic cells, HT-29 cells were treated by control DMSO, human TNFα (Peprotech, Rocky Hill, USA), SM-164 (Biovision, California, USA) and a pan-caspase inhibitor Z-VAD-FMK (Invivogen, San Diego, USA). Cells were pretreated with Z-VAD-FMK 20 μM. After 30 min, human TNFα 10 ng/ml, SM-164 100 nM and RIPK1 Inhibitor (0.0001, 0.001, 0.01, 0.02, 0.05, 0.1, 1, 10 uM) were treated for 24 h. Cell viability was measured by Cell Counting Kit 8 (CCK-8) (Dong-in, Seoul, Korea).

O=C1Nc2ccccc2OC[C@@H]1NC(=O)n1cc(Cc2ccccc2)cn1 [Example 1, (S)-4-benzyl-N-(4-oxo-2,3,4,5-tetrahydrobenzo[b][1,4]oxazepin-3-yl)-1H-pyrazole-1-carboxamide] and O=C1Nc2ccccc2OC[C@@H]1NC(=O)n1cc(Cc2cccc(F)c2)cn1 [Example 2, (S)-4-(3-fluorobenzyl)-N-(4-oxo-2,3,4,5-tetrahydrobenzo[b][1,4]oxazepin-3-yl)-11H-pyrazole-1-carboxamide] cannot be ordered by pIC50: greater than 7.00 for the first, greater than 7.00 for the second.

CN1C(=O)[C@@H](NC(=O)n2cc(Cc3cccc(F)c3)cn2)COc2ccccc21 [Example 3, (S)-4-(3-fluorobenzyl)-N-(5-methyl-4-oxo-2,3,4,5-tetrahydrobenzo[b][1,4]oxazepin-3-yl)-4-1H-pyrazole-1-carboxamide] and CN1C(=O)[C@@H](NC(=O)n2cc(Cc3cccc(Cl)c3)cn2)COc2ccccc21 [Example 4, (S)-4-(3-chlorobenzyl)-N-(5-methyl-4-oxo-2,3,4,5-tetrahydrobenzo[b][1,4]oxazepin-3-yl)-1H-pyrazole-1-carboxamide] cannot be ordered by pIC50: greater than 8.00 for the first, greater than 8.00 for the second.

Cc1cccc(Cc2cnn(C(=O)N[C@H]3COc4ccccc4N(C)C3=O)c2)c1 [Example 5, (S)—N-(5-methyl-4-oxo-2,3,4,5-tetrahydrobenzo[b][1,4]oxazepin-3-yl)-4-(3-methylbenzyl)-1H-pyrazole-1-carboxamide] and CN1C(=O)[C@@H](NC(=O)n2cc(Cc3cccc(C#N)c3)cn2)COc2ccccc21 [Example 7, (S)-4-(3-cyanobenzyl)-N-(5-methyl-4-oxo-2,3,4,5-tetrahydrobenzo[b][1,4]oxazepin-3-yl)-1H-pyrazole-1-carboxamide] cannot be ordered by pIC50: greater than 8.00 for the first, greater than 8.00 for the second.

CN1C(=O)[C@@H](NC(=O)n2cc(Cc3cccc(C(F)(F)F)c3)cn2)COc2ccccc21 [Example 6, (S)—N-(5-methyl-4-oxo-2,3,4,5-tetrahydrobenzo[b][1,4]oxazepin-3-yl)-4-(3-(trifluoromethyl)benzyl)-1H-pyrazole-1-carboxamide] and CN1C(=O)[C@@H](NC(=O)n2cc(Cc3ccc(F)cc3)cn2)COc2ccccc21 [Example 8, (S)-4-(4-fluorobenzyl)-N-(5-methyl-4-oxo-2,3,4,5-tetrahydrobenzo[b][1,4]oxazepin-3-yl)-1H-pyrazole-1-carboxamide] cannot be ordered by pIC50: greater than 7.00 for the first, greater than 7.00 for the second.

CN1C(=O)[C@@H](NC(=O)n2cc(Cc3ccc(C#N)cc3)cn2)COc2ccccc21 [Example 9, (S)-4-(4-cyanobenzyl)-N-(5-methyl-4-oxo-2,3,4,5-tetrahydrobenzo[b][1,4]oxazepin-3-yl)-1H-pyrazole-1-carboxamide] and CN1C(=O)[C@@H](NC(=O)n2cc(Cc3ccccc3)cn2)COc2ccncc21 [Example 22, (S)-4-benzyl-N-(5-methyl-4-oxo-2,3,4,5-tetrahydropyrido[4,3-b][1,4]oxazepin-3-yl)-1H-pyrazole-1-carboxamide] cannot be ordered by pIC50: greater than 7.00 for the first, greater than 8.00 for the second.

O=C1Nc2c(F)cccc2OC[C@@H]1NC(=O)n1cc(Cc2ccccc2)cn1 [Example 10, (S)-4-benzyl-N-(6-fluoro-4-oxo-2,3,4,5-tetrahydrobenzo[b][1,4]oxazepin-3-yl)-1H-pyrazole-1-carboxamide] and O=C1Nc2c(F)cccc2OC[C@@H]1NC(=O)n1cc(Cc2cccc(F)c2)cn1 [Example 11, (S)—N-(6-fluoro-4-oxo-2,3,4,5-tetrahydrobenzo[b][1,4]oxazepin-3-yl)-4-(3-fluorobenzyl)-1H-pyrazole-1 carboxamide] cannot be ordered by pIC50: greater than 7.00 for the first, greater than 7.00 for the second.

CN1C(=O)[C@@H](NC(=O)n2cc(Cc3ccccc3)cn2)COc2cccc(F)c21 [Example 12, (S)-4-benzyl-N-(6-fluoro-5-methyl-4-oxo-2,3,4,5-tetrahydrobenzo[b][1,4]oxazepin-3-yl)-1H-pyrazole-1-carboxamide] and CN1C(=O)[C@@H](NC(=O)n2cc(Cc3cccc(F)c3)cn2)COc2cccc(F)c21 [Example 13, (S)—N-(6-fluoro-5-methyl-4-oxo-2,3,4,5-tetrahydrobenzo[b][1,4]oxazepin-3-yl)-4-(3-fluorobenzyl)-1H-pyrazole-1-carboxamide] cannot be ordered by pIC50: greater than 8.00 for the first, greater than 8.00 for the second.

Going from O=C1Nc2c(F)cc(F)cc2OC[C@@H]1NC(=O)n1cc(Cc2ccccc2)cn1 [Example 14, (S)-4-benzyl-N-(6,8-difluoro-4-oxo-2,3,4,5-tetrahydrobenzo[b][1,4]oxazepin-3-yl)-1H-pyrazole-1-carboxamide] to O=C1Nc2c(F)cc(F)cc2OC[C@@H]1NC(=O)n1cc(Cc2cccc(F)c2)cn1 [Example 15, (S)—N-(6,8-difluoro-4-oxo-2,3,4,5-tetrahydrobenzo[b][1,4]oxazepin-3-yl)-4-(3-fluorobenzyl)-1H-pyrazole-1-carboxamide], the pIC50 falls from greater than 7.00 to less than 7.00.

CN1C(=O)[C@@H](NC(=O)n2cc(Cc3ccccc3)cn2)COc2cc(F)cc(F)c21 [Example 16, (S)-4-benzyl-N-(6,8-difluoro-5-methyl-4-oxo-2,3,4,5-tetrahydrobenzo[b][1,4]oxazepin-3-yl)-1H-pyrazole-1-carboxamide] and CN1C(=O)[C@@H](NC(=O)n2cc(Cc3cccc(F)c3)cn2)COc2cc(F)cc(F)c21 [Example 17, (S)—N-(6,8-difluoro-5-methyl-4-oxo-2,3,4,5-tetrahydrobenzo[b][1,4]oxazepin-3-yl)-4-(3-fluorobenzyl)-1H-pyrazole-1-carboxamide] cannot be ordered by pIC50: greater than 8.00 for the first, greater than 8.00 for the second.

COc1ccc2c(c1)OC[C@H](NC(=O)n1cc(Cc3ccccc3)cn1)C(=O)N2C [Example 18, (S)-4-benzyl-N-(8-methoxy-5-methyl-4-oxo-2,3,4,5-tetrahydrobenzo[b][1,4]oxazepin-3-yl)-1H-pyrazole-1-carboxamide] and COc1ccc2c(c1)N(C)C(=O)[C@@H](NC(=O)n1cc(Cc3ccccc3)cn1)CO2 [Example 19, (S)-4-benzyl-N-(7-methoxy-5-methyl-4-oxo-2,3,4,5-tetrahydrobenzo[b][1,4]oxazepin-3-yl)-1H-pyrazole-1-carboxamide] cannot be ordered by pIC50: greater than 8.00 for the first, greater than 8.00 for the second.

COc1ccc2c(c1)N(C)C(=O)[C@@H](NC(=O)n1cc(Cc3cccc(F)c3)cn1)CO2 [Example 20, (S)-4-(3-fluorobenzyl)-N-(7-methoxy-5-methyl-4-oxo-2,3,4,5-tetrahydrobenzo[b][1,4]oxazepin-3-yl)-1H-pyrazole-1-carboxamide] and CN1C(=O)[C@@H](NC(=O)n2cc(Cc3cccc(F)c3)cn2)COc2ccncc21 [Example 23, (S)-4-(3-fluorobenzyl)-N-(5-methyl-4-oxo-2,3,4,5-tetrahydropyrido[4,3-b][1,4]oxazepin-3-yl)-1H-pyrazole-1-carboxamide] cannot be ordered by pIC50: greater than 8.00 for the first, greater than 8.00 for the second.

CN1C(=O)[C@@H](NC(=O)n2cc(Cc3cccc(F)c3)cn2)COc2cccnc21 [Example 21, (S)-4-(3-fluorobenzyl)-N-(5-methyl-4-oxo-2,3,4,5-tetrahydropyrido[3,2-b][1,4]oxazepin-3-yl)-1H-pyrazole-1-carboxamide] and CN1C(=O)[C@@H](NC(=O)n2cc(Cc3ccccc3)cn2)COc2cnccc21 [Example 24, (S)-4-benzyl-N-(1-methyl-2-oxo-1,2,3,4-tetrahydropyrido[3,4-b][1,4]oxazepin-3-yl)-1H-pyrazole-1-carboxamide] cannot be ordered by pIC50: greater than 8.00 for the first, greater than 7.00 for the second.

O=C1Nc2c(F)cc(F)cc2CCC1NC(=O)n1cc(Cc2ccccc2)cn1 (stereo not shown) [Example 25, 4-benzyl-N-(7,9-difluoro-2-oxo-2,3,4,5-tetrahydro-1H-benzo[b]azepin-3-yl)-1H-pyrazole-1-carboxamide] and O=C1Nc2c(F)cc(F)cc2CC[C@@H]1NC(=O)n1cc(Cc2cccc(F)c2)cn1 [Example 26, (S)—N-(7,9-difluoro-2-oxo-2,3,4,5-tetrahydro-1H-benzo[b]azepin-3-yl)-4-(3-fluorobenzyl)-1H-pyrazole-1-carboxamide] cannot be ordered by pIC50: greater than 7.00 for the first, greater than 8.00 for the second.

CN1C(=O)C(NC(=O)n2cc(Cc3ccccc3)cn2)CCc2cc(F)cc(F)c21 (stereo not shown) [Example 27, 4-benzyl-N-(7,9-difluoro-1-methyl-2-oxo-2,3,4,5-tetrahydro-1H-benzo[b]azepin-3-yl)-1H-pyrazole-1-carboxamide] and CN1C(=O)C(NC(=O)n2cc(Cc3cccc(F)c3)cn2)CCc2cc(F)cc(F)c21 (stereo not shown) [Example 28, N-(7,9-difluoro-1-methyl-2-oxo-2,3,4,5-tetrahydro-1H-benzo[b]azepin-3-yl)-4-(3-fluorobenzyl)-1H-pyrazole-1-carboxamide] cannot be ordered by pIC50: greater than 8.00 for the first, greater than 8.00 for the second.

O=C1Nc2nccnc2CCC1NC(=O)n1cc(Cc2ccccc2)cn1 (stereo not shown) [Example 29, 4-benzyl-N-(6-oxo-6,7,8,9-tetrahydro-5H-pyrazino[2,3-b]azepin-7-yl)-1H-pyrazole-1-carboxamide] and O=C1Nc2nccnc2CCC1NC(=O)n1cc(Cc2cccc(F)c2)cn1 (stereo not shown) [Example 30, 4-(3-fluorobenzyl)-N-(6-oxo-6,7,8,9-tetrahydro-5H-pyrazino[2,3-b]azepin-7-yl)-1H-pyrazole-1-carboxamide] cannot be ordered by pIC50: less than 7.00 for the first, less than 7.00 for the second.

With CN1C(=O)C(NC(=O)n2cc(Cc3ccccc3)cn2)CCc2nccnc21 (stereo not shown) [Example 31, 4-benzyl-N-(5-methyl-6-oxo-6,7,8,9-tetrahydro-5H-pyrazino[2,3-b]azepin-7-yl)-1H-pyrazole-1-carboxamide] the pIC50 was less than 7.00.
